The values below come from patent US8729097B2, “Quinoline compounds as inhibitors of angiogenesis, human methionine aminopeptidase, and SIRT1, and methods of treating disorders” (The Johns Hopkins University, priority 2008, dated 2014).

Where two headings read alike, the source gives them in different places.

For data set [1], the system named is acetylation of p53 (K382), α-tubulin and histone-H3. Briefly: Acetylation status of sirtuin substrates in HUVEC (Western blot). In kind it is cell-based, human. The note with it: HUVEC; for acetylation status of tubulin or histone-H3: 6 h or 20 h. As to the method:
Cells were lysed by adding 1 volume of 2× Laemmli buffer and were then boiled for 5 min. The samples were separated by SDS-PAGE and transferred to nitrocellulose membrane (Bio-Rad). Proteins were detected using primary antibodies for p53 (Santa Cruz), met-14-3-3γ (Novus), p21 (Santa Cruz), Rb (Santa Cruz), MetAP2 (Hu, X. et al (2006) Proc. Natl. Acad. Sci. U.S.A. 103, 18148-18153), SirT1 (Santa Cruz), acetyl-p53-K382 (Abeam), acetyl-tubulin (Sigma), histone-H3 (Santa Cruz), acetyl-H3 (Santa Cruz) and α-tubulin (TU-02, Santa Cruz) followed by the incubation with horseradish peroxidase (HRP)-conjugated anti-mouse or anti-rabbit antibodies (Santa Cruz) and enhanced chemiluminescence (ECL, Amersham).

The subject of data set [2] is HUVEC. Briefly: HUVEC proliferation, [3H]-thymidine incorporation assay. In kind it is cell-based, human. As to the method:
HCC1954 cells were grown in RPMI1640 containing 10% FBS. HUVEC were grown using the EGM-2 bullet kit (Cambrex) as per manufacturer's instructions. The cells were maintained in a humidified incubator adjusted to 5% CO2. For drug screening, 10 mM stock solutions of Johns Hopkins Drug Library were arrayed in 96-well plates and screened at a final concentration of 10 μM. The cell growth was determined using a [^3H]-thymidine incorporation assay. Cells (typically 5,000 cells/well) were seeded in 96-well plates containing 0.2 ml of growth media and allowed to adhere for 24 h. The cells were then treated with drugs for 24 h. Cells were pulsed with 1 μCi [^3H]-thymidine (MP Biomedicals, 6.7 Ci mmol^−1) for 8 h and harvested, upon trypsin treatment, onto glass fiber filters (Wallac, Turku, Finland), from which ^3H counts were determined using a Perkin Elmer MicroBeta plate reader.

Another data set deals with T1, hMetAP2 (Homo sapiens, UniProt P50579).
T1 construct: made in house
T1 sequence (P50579 whole entry): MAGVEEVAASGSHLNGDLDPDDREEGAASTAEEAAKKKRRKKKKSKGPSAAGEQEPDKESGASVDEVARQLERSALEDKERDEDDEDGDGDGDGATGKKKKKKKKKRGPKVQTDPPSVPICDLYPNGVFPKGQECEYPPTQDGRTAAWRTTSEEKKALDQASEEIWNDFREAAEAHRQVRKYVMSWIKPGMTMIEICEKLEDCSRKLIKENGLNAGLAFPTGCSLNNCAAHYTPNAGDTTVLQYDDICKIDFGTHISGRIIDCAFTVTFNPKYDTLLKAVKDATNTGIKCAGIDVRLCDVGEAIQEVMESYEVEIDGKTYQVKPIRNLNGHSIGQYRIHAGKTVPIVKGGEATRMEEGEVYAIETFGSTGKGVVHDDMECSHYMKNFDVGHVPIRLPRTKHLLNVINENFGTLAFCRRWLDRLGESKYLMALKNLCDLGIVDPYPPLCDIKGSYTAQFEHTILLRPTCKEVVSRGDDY
Briefly: MetAP enzymatic assay, hMetAP2. In kind it is biochemical.

In another data set the target is T2, hMetAP1 (Homo sapiens, UniProt P53582).
T2 construct: made in house
Briefly: MetAP enzymatic assay, hMetAP1. Type of data set: biochemical.

In the next data set the test system is HFF. The data set is described as follows: HFF proliferation (selectivity). Type of data set: cell-based.
In data set [3] the test system is HUVEC. Briefly: Senescence associated-β-galactosidase (SA-β-gal) staining in HUVEC. In kind it is cell-based, human. As to the method: Cells in 6-well plates were washed with PBS and fixed with 3% paraformaldehyde. After washing with PBS, the cells were incubated for 24 h at 37° C. (without CO2, protected from light) in freshly prepared SA-β-gal staining solution containing 1 mg/ml 5-bromo-4-chloro-3-indolyl β-D-galactopyranoside (X-gal), 5 mM potassium ferrocyanide, 5 mM potassium ferricyanide, 150 mM NaCl, 2 mM MgCl2 and 40 mM citric acid, titrated with NaH2PO4 to pH 6.0. SA-β-gal solution was then removed and the cells were washed with PBS. The stained cells were observed under a microscope.

Where [4] appears, read: Table 3, in the presence of Co^2+, read-out: hMetAP2 Co^2+ IC50.
Where [5] appears, read: Table 3, in the presence of Mn^2+, read-out: hMetAP2 Mn^2+ IC50.
Setting [6] is: Table 3, in the presence of Co^2+, read-out: hMetAP1 Co^2+ IC50.
Setting [7] is: Table 3, in the presence of Mn^2+, read-out: hMetAP1 Mn^2+ IC50.
[8] abbreviates: Table 3, read-out: Selectivity HUVEC IC50.
The mark [9] stands for this setting: hMetAP2 Co^2+ IC50, Table 2, in the presence of Co^2+.
The mark [10] stands for this setting: read-out: hMetAP1 Co^2+ IC50, Table 2, in the presence of Co^2+.
Setting [11] is: Homo sapiens, HUVEC, read-out: Selectivity HUVEC IC50.
Setting [12] is: Homo sapiens, HUVEC, Table 4, read-out: HUVEC IC50.
[13] abbreviates: Table 2, in the presence of Co^2+, read-out: hMetAP2 Co^2+ IC50.
[14] abbreviates: Table 2, in the presence of Co^2+, read-out: hMetAP1 Co^2+ IC50.
Setting [15] is: Table 2, in the presence of Mn^2+, read-out: hMetAP1 Mn^2+ IC50.

As for `CC(/C=C/C(=O)NO)=C\[C@@H](C)C(=O)c1ccc(N(C)C)cc1` [TSA], the “acetylation status of tubulin or histone-H3” value in data set [1] is given as “induced hyper-acetylation”. The p53 acetylation entry in data set [1] (early time point) is “increased p53 acetylation”.

With `CCOC(=O)COc1ccc([N+](=O)[O-])c2cccnc12` [Entry 5d, Ethyl 1-(5-Nitro-quinolin-8-yloxy)-acetate], the half-inhibitory concentration (IC50) in the data set on HUVEC [2] (Table 4, read-out: HUVEC IC50) was determined as 7.3 µM.

As for `O=C(Nc1ccccc1)Oc1ccc(Cl)c2cccnc12` [Entry 4e, 5-Chloro-8-quinolyl-N-phenylcarbamate], the IC50 on hMetAP2 (setting [4]) was 1.9 µM; on hMetAP2 (setting [5]), 0.03 µM; on hMetAP1 (setting [6]) it was over 50 µM; on hMetAP1 (setting [7]), 11.9 µM; in the data set with HUVEC [2] (setting [8]), 2.1 µM; with HFF (Table 3), 8.8 µM.

Regarding `Oc1cccc2cccnc12` [Entry 1a], the IC50 was over 50 µM at hMetAP2 (setting [9]); 2 µM on hMetAP2 (hMetAP2 Mn^2+ IC50, Table 2, in the presence of Mn^2+); over 50 µM at hMetAP1 (setting [10]); 6.2 µM with HUVEC [2] (setting [11]); 6.6 µM with HFF (Homo sapiens, HFF, Table 2).

For `Cc1ccc2c([N+](=O)[O-])cc([N+](=O)[O-])c(O)c2n1` [Entry 5b, 2-Methyl-5,7-dinitro-8-hydroxy-quinoline], in the data set with HUVEC [2] (setting [12]), the IC50 is 17.3 µM.

Consider `CCCC(CCC)C(=O)O` [valproic acid], for which the “premature senescence in HUVEC” value in the data set with HUVEC [3] (72 h, valproic acid 0.1 mM, TNP-470 20 nM) is “induced premature senescence”. In the data set on HUVEC [3] (72 h treatment, then fresh media for an additional 48 h), the reversibility of senescence result is listed as “reversed their senescence state”.

In the case of `O=C(Nc1cc(Cl)cc(Cl)c1)Oc1c(Cl)cc(Cl)c2cccnc12` [Entry 4b, 5,7-Dichloro-8-quinolyl-N-(3,5-dichlorophenyl)-carbamate], the IC50 on hMetAP2 (setting [4]) was over 50 µM; at hMetAP2 (setting [5]), 0.9 µM; on hMetAP1 (setting [6]) it was over 50 µM; on hMetAP1 (setting [7]), over 50 µM; with HUVEC [2] (setting [8]), 0.11 µM; in the data set on HFF (Table 3), 3 µM.

As for `O=C(Nc1ccc(F)cc1)Oc1c(Cl)cc(Cl)c2cccnc12` [Entry 4f, 5,7-Dichloro-8-quinolyl-N-(4-fluorophenyl)-carbamate], the IC50 is over 50 µM on hMetAP2 (setting [4]); 3.1 µM at hMetAP2 (setting [5]); over 50 µM on hMetAP1 (setting [6]); over 50 µM on hMetAP1 (setting [7]); 37 µM with HFF (Table 3).

Regarding `NC(=O)COc1ccc([N+](=O)[O-])c2cccnc12` [Entry 5e, 1-(5-Nitro-quinolin-8-yloxy)-acetamide], in the data set on HUVEC [2] (Table 4, read-out: HUVEC IC50), the IC50 is 6.3 µM.

For `O=S(=O)(O)c1ccc(O)c2ncccc12` [Entry 1d], the IC50 is over 50 µM on hMetAP2 (setting [9]); over 50 µM in the data set on HUVEC [2] (setting [11]); over 50 µM in the data set on HFF (Homo sapiens, HFF, Table 2).

`Oc1c(C(Nc2nccs2)c2ccco2)cc(Cl)c2cccnc12` (stereo not drawn) [Entry 2g, 5-Chloro-7-(1-(2-furyl)-1-(2-thiazolylamino)-methyl)-8-hydroxy-quinoline] yielded a melting point of 126 °C. Moreover, the IC50 at hMetAP2 (setting [13]) is over 50 µM. Also, the IC50 on hMetAP2 (Table 2, in the presence of Mn^2+, read-out: hMetAP2 Mn^2+ IC50) was determined as 2.8 µM. Also, the IC50 at hMetAP1 (setting [14]) is over 50 µM. Besides, on hMetAP1 (setting [15]), the IC50 is over 50 µM. Besides, the IC50 in the data set with HUVEC [2] (Homo sapiens, HUVEC, Table 2, read-out: Selectivity HUVEC IC50) was determined as 2.5 µM. Besides, the IC50 in the data set on HFF (Homo sapiens, HFF, Table 2) is 13.5 µM.

As to `OCCN(CCO)Cc1cc(Cl)c2cccnc2c1O` [Entry 2a, 5-Chloro-7-(N,N-bis(2-hydroxyethyl)aminomethyl)-8-hydroxy-quinoline], the IC50 on hMetAP2 (setting [13]), at hMetAP1 (setting [14]) and at hMetAP1 (setting [15]) was over 50 µM in each case.

Take `O=C(Nc1ccccc1)Oc1c(Cl)cc(Cl)c2cccnc12` [Entry 4d, 5,7-Dichloro-8-quinolyl-N-phenylcarbamate]: the IC50 was over 50 µM at hMetAP2 (setting [4]); 1.6 µM at hMetAP2 (setting [5]); over 50 µM on hMetAP1 (setting [6]); over 50 µM on hMetAP1 (setting [7]); 15.3 µM in the data set with HFF (Table 3).

For `Oc1c(C(c2ccccc2)N2CCOCC2)cc(Cl)c2cccnc12` (stereo not drawn) [Entry 2f, 5-Chloro-7-(1-phenyl-1-(N-morpholino)-methyl)-8-hydroxy-quinoline], the melting point was 89 °C.

For `CC(C)(C)OC(=O)Oc1ccc([N+](=O)[O-])c2cccnc12` [Entry 5c, 5-Nitro-8-tert-butoxycarbonyloxyquinoline], in the data set on HUVEC [2] (setting [12]), the half-maximal inhibitory concentration (IC50) stood at 0.29 µM.

For `O=C(NCCCl)Oc1c(Cl)cc(Cl)c2cccnc12` [Entry 4i, 5,7-Dichloro-8-quinolyl-N-(2-chloroethyl)-carbamate], the IC50 is over 50 µM at hMetAP1 (setting [6]), over 50 µM at hMetAP1 (setting [7]), 2.4 µM in the data set with HUVEC [2] (setting [8]) and 11.1 µM in the data set with HFF (Table 3).

With `C=CCOc1ccc(Cl)c2cccnc12` [Entry 3a, 8-Allyloxy-5-chloroquinoline], the IC50 on hMetAP2 (read-out: hMetAP2 Co^2+ IC50, Table 2, in the presence of Co^2+) is over 50 µM; on hMetAP1 (setting [10]), over 50 µM.

On to `CC(NC(=O)c1ccccc1/N=C/c1c(O)ccc2ccccc12)c1ccccc1` (stereo not drawn) [sirtinol], for which the “acetylation status of tubulin or histone-H3” value in data set [1] is reported as “induced hyper-acetylation”.

With `O=C(NCCCl)Oc1ccc(Cl)c2cccnc12` [Entry 4h, 5-Chloro-8-quinolyl-N-(2-chloroethyl)-carbamate], the IC50 in the data set with HUVEC [2] (setting [8]) was determined as 2.3 µM; with HFF (Table 3), 8.4 µM.

Consider `O=C(Nc1cc(F)cc(F)c1)Oc1ccc(Cl)c2cccnc12` [Entry 4g, 5-Chloro-8-quinolyl-N-(3,5-difluorophenyl)-carbamate], for which the IC50 was 45.7 µM at hMetAP2 (setting [4]); 1.8 µM on hMetAP2 (setting [5]); over 50 µM on hMetAP1 (setting [6]); over 50 µM at hMetAP1 (setting [7]); 16.1 µM with HFF (Table 3).

Consider `O=C(Nc1cc(Cl)cc(Cl)c1)Oc1ccc(Cl)c2cccnc12` [Entry 4c, 5-Chloro-8-quinolyl-N-(3,5-dichlorophenyl)-carbamate], for which the IC50 at hMetAP2 (setting [4]) is 2.2 µM; at hMetAP2 (setting [5]) it was 0.07 µM; at hMetAP1 (setting [6]), over 50 µM; on hMetAP1 (setting [7]), 12.6 µM; with HUVEC [2] (setting [8]), 1.2 µM; with HFF (Table 3) it was 8 µM.

What is called IC50 is the point on the concentration scale where inhibition reaches its midpoint. One may read the melting point as the temperature of the solid-liquid transition.
